Three molecules from BindingDB's records for PubMed 33592144 (Merck, 2021) can be followed below.

For this experiment, the target named is Proprotein convertase subtilisin/kexin type 9 (Homo sapiens, UniProt Q8NBP7). The experiment is described as follows: Inhibition of human C-terminal V5 epitope tagged PCSK9 by luciferase reporter assay.

Broadly, the IC50 is the concentration at which inhibition is half-maximal. `COc1ccc(CCC(=O)N(c2nccc3ccccc23)[C@@H]2CCCNC2)cc1` showed a concentration for half-maximal inhibition (IC50) of 4500 nM.
In the case of `O=C(c1ccc(-c2cnn3cccnc23)cc1)N(c1ncccc1Cl)[C@@H]1CCCNC1` [US9227956, 2], the half-inhibitory concentration (IC50) came out at 300 nM.
With `O=C(c1ccc(-n2nnc3ccccc32)cc1)N(c1ncccc1Cl)[C@@H]1CCCNC1` the figure was 300 nM.
